Columns and labels:
Mus musculus = experiment: Inhibition of human colon tumor (LS174T) xenograft in nude mice; type: functional
P388 [1] = experiment: Inhibitory activity against P388 Leukemia cells; type: functional, cell-based; conditions: Mus musculus
[2] = Half life measured in PBS; type: ADME
[3] = Half life measured in rat plasma; type: ADME
P388 [4] = experiment: Inhibitory activity against P388/0 Leukemia cells; type: functional, cell-based; conditions: Mus musculus

| Structure (SMILES) | Inhibition (Mus musculus) | IC50 (P388 [1]) | half-life [2] | half-life [3] | IC50 (P388 [4]) |
| --- | --- | --- | --- | --- | --- |
| CC[C@@]1(O)C(=O)OCc2c1cc1n(c2=O)Cc2cc3cc(O)ccc3nc2-1 [HYDROXYCAMPTOTHECIN] | 36.5% | 12 nM |  |  |  |
| CC[C@@]1(O)C(=O)OCc2c1cc1n(c2=O)Cc2cc3cc(OC(=O)COCCO)ccc3nc2-1 | 57.6% |  | 5 h | 7.2 min | 55 nM |
| CC[C@@]1(O)C(=O)OCc2c1cc1n(c2=O)Cc2cc3ccccc3nc2-1 [CAMPTOTHECIN] | 4.9% | 7 nM |  |  |  |

— ChEMBL document CHEMBL1145759, “Selective phenolic acylation of 10-hydroxycamptothecin using poly (ethylene glycol) carboxylic acid” (Bioorg Med Chem Lett, 2003)
